Experimental findings from patent publication US20190054109A1, “An antiviral composition and a method for application thereof” (ALLA CHEM, LLC, priority 2017, published 2019) are described below.

A short description of data set [1]: Kinetic solubility (MultiScreen Solubility filter plate, UV). It is filed as physicochemical. The note with it: aqueous buffer with 2% DMSO, kinetic from dmso stock, 260 nm. On the procedure:
The tested compound was dissolved in DMSO to reach a 10-mM concentration and then poured into an aqueous solvent (a phosphate buffer, water, or universal buffers of different pH values) to bring the concentration down to 200 μM. The resulting solution placed in a 96-well filter plate (Millipore's MultiScreen Solubility Filter Plate) was incubated for an hour at room temperature on a shaker, and the residue was filtered off in vacuo. The absorption spectrum of the compound was recorded on a spectrophotometer in a range of 240-400 nm with a 10-nm increment. […] The range of estimated concentrations was 3-200 μM. The test procedure was performed in duplicate.
Six standard samples with concentrations of 0, 3.125, 12.5, 50, 100, and 200 μM were prepared in the wells of a UV 96-well plate by adding 4 μl of corresponding 50× stock solutions in DMSO to 196 μl of a buffer comprising 40% acetonitrile. The concentration of DMSO in all points was constant and equal to 2% (v/v).
To plot calibration curves, the optical spectrum of the UV plate was recorded in a wavelength range of 250 400 nm with a 10-nm increment. Based on the spectral data for each compound, wavelengths were selected to meet the following criteria:
For minimum compound concentration, OD>0.1 (AU);
For maximum compound concentration, OD<2.0.
For each compound, a calibration curve was plotted with OD at selected wavelength as a function of concentration.
Solubility was evaluated in a MultiScreen Solubility (Millipore Corp.) filter plate as follows:
Into each well of the MultiScreen Solubility filter plate, 196 μl of a buffer (without acetonitrile) and 4 μl of a 10-mM compound in DMSO or 4 μl of DMSO (for a blank matrix) were added. The plate was incubated for one hour on a shaker (400 rpm) at room temperature.
The resulting solutions were filtered off through the filter plate by means of vacuum (10″ Hg) into a polypropylene plate with a U-shaped bottom.
From the U-bottom plate, the filtrate (120 μl/well) was transferred into a new UV plate, where to acetonitrile (80 μl/well) was added.
The optical density of resulting solutions for a pre-selected wavelength was measured for each compound.
The final compound concentration in the filtrate was computed as follows:
Cfiltrate=(ODλFiltrate-ODλBlank)/Slope×1.67,

Data set [2] can be described thus: Pharmacokinetics of triphosphate PSI-7409 in rat liver after peroral administration. The note with it: comparison of Cmax and AUC24h in rat liver. The data set is classed as in vivo, Sprague Dawley rats. On the procedure: The tested composition was administered at a dose of 50 mg/kg. To this end, compositions were prepared with a concentration of prodrug 1.1 or Sovaldi® of 5.0 mg/ml in a 0.5% solution of hydroxypropyl methylcellulose (HPMC), to which 5% ethanol was added, as follows: to a weighed portion of the prodrug of formula 1.1 or Sovaldi®, an appropriate amount of HPMC was added, and the mixture was triturated dry in a mortar, whereafter a proper quantity of 5% ethanol in distilled water was gradually added portionwise, and the mixture was carefully stirred to obtain a suspension suitable for intragastric administration.
The study was carried out on Sprague Dawley rats. The rats were divided into groups of 6 based on selected time points (1, 2, 4, 6, 8, 10, 12, 16, and 24 h). The rats were weighed, and the volume of compositions comprising the prodrug of formula 1.1 or Sovaldi® was calculated for each animal at a rate of 10 ml/kg. Compositions comprising the prodrug of formula 1.1 or Sovaldi® were administered intragastrically through a feeding tube. […]
Samples were analyzed using an HPLC-MS/MS technique, wherein the HPLC system Agilent 1290 Infinity II was combined with the AB Sciex QTrap 5500 mass spectrometer. […] PSI-7409 and H027-4261 were recorded in MRM mode with ion transitions of 499/159 and 410/150, respectively. […]

Each structure is given as a SMILES string. Converted amounts (≈) assume the structure as drawn. “Also recorded” adds a separate entry of the source. Like-named read-outs stand apart in the source and are kept apart here.

On to `C[C@H](N[P@](=O)(OC[C@H]1O[C@@H](n2ccc(=O)[nH]c2=O)[C@](C)(F)[C@@H]1O)Oc1ccccc1)C(=O)OC1CCC1` [Prodrug 1.1, cyclobutyl (S)-2-{(S)-[(2R,3R,4R,5R)-5-(3,4-dihydro-2,4-dioxo-2H-pyrimidin-1-yl)-3-hydroxy-4-methyl-4-fluoro-tetrahydro-furan-2-ylmethoxy]-phenoxy-phosphorylamino}-propanoate], for which the solubility at 1 h in data set [1] (pH 2, aqueous buffer, recrystallized from acetic acid, polycrystal, read-out: Solubility at pH 2) was 630 µg/mL (≈ 1160 µM); in data set [1] (pH 2, aqueous buffer, recrystallized from dimethyl sulfoxide, crystal, read-out: Solubility at pH 2), 180 µg/mL (≈ 332 µM); in data set [1] (pH 2, aqueous buffer, recrystallized from ethanol, polycrystal, read-out: Solubility at pH 2), 200 µg/mL (≈ 369 µM); in data set [1] (pH 2, aqueous buffer, recrystallized from ethyl acetate and methyl-tert-butyl ether mixture, polycrystal, read-out: Solubility at pH 2) it was 250 µg/mL (≈ 462 µM); in data set [1] (pH 2, aqueous buffer, recrystallized from ethyl acetate, polycrystal, read-out: Solubility at pH 2), 220 µg/mL (≈ 406 µM); in data set [1] (pH 7, aqueous buffer, recrystallized from acetic acid, polycrystal, read-out: Solubility at pH 7) it was 670 µg/mL (≈ 1240 µM). Moreover, the solubility at 1 h in data set [1] (pH 7, aqueous buffer, recrystallized from dimethyl sulfoxide, crystal, read-out: Solubility at pH 7) is 180 µg/mL (≈ 332 µM); in data set [1] (pH 7, aqueous buffer, recrystallized from ethanol, polycrystal, read-out: Solubility at pH 7), 200 µg/mL (≈ 369 µM); in data set [1] (pH 7, aqueous buffer, recrystallized from ethyl acetate and methyl-tert-butyl ether mixture, polycrystal, read-out: Solubility at pH 7) it was 240 µg/mL (≈ 443 µM); in data set [1] (pH 7, aqueous buffer, recrystallized from ethyl acetate, polycrystal, read-out: Solubility at pH 7) it was 220 µg/mL (≈ 406 µM). Also, the “effectiveness of liver metabolism into triphosphate PSI-7409 relative to Sovaldi” value in data set [2] was “almost twice more effective; also recorded: almost two times more effectively”.
